# Reference: patent publication US20220370636A1, “NICOTINAMIDE ADENINE DINUCLEOTIDE ACTIVATOR AND USE THEREOF” (University of South Florida, priority 2021, published 2022)
# Key:
# [1] = tested on: db/db hearts; assay: Ex vivo ischemia reperfusion (Langendorff) in db/db hearts; design: species or system mice
# Procedure: Ex vivo ischemia reperfusion protocol. Mice were injected with heparin (360 USP units, Sigma-Aldrich, MO, USA) and euthanized with Somnasol™ (pentobarbital, 50 mg/kg i.p. body weight). Hearts were then excised and mounted on to the Langendorff apparatus immediately and perfused with Krebs-Hanseleit buffer containing (in mM): 119 NaCl, 25 NaHCO3, 4 KCl, 1 MgCl2, 1.8 CaCl2), 1 MgCl2, 10 glucose and 2 Sodium pyruvate, pH 7.4, that was constantly bubbled with carbogen gas and maintained at 37° C. as described previously. Perfusion was maintained at a constant flow of ˜2.2 ml/min. Hearts were stabilized for 30 min before proceeding to the ischemic phase. Hearts that underwent P7C3 (3 μM) treatment during the Langendorff procedure were allowed to stabilize for 10 mins then a 20 min perfusion with P7C3 (3 μM) (within Krebs-Hanseleit buffer) as pre-ischemic dosing. Cardiac ischemia was induced by the pause in Krebs-Hanseleit buffer perfusion for 45 min. Reperfusion was induced with the induction of Krebs-Hanseleit buffer at a constant flow of ˜2.2 ml/min for 2 hours. […] Image J software was utilized to quantify the ischemic areas for several sections per heart, which were then averaged and divided by the total area of the heart section and multiplied by a factor of ×100(%) to determine the overall damage percentage per heart. […]
# [2] = tested on: db/db mice hearts; assay: Pyridine nucleotide measurements in db/db hearts; format: in vivo; conditions: vs vehicle control
# Procedure: Pyridine nucleotide measurements. NADH/NAD^+ ratios were determined in frozen db/db heart tissues (from the vehicle and P7C3 treated mice) using commercially available EnzyChrome kit (Bioassays, Hayward, Calif., USA) as reported before. Following manufacturer's instructions, cardiac tissue was homogenized in 100 μl of NAD^+ or NADH extraction buffer for NAD^+ and NADH determination, respectively. Samples were heated at 60° C. for 5 minutes on a heat block and neutralized by adding 100 μl of the opposite extraction buffer. Samples were then mixed by brief vortexing and centrifuged at 14,000 rpm for 5 minutes. 40 μl of supernatant from each sample was dispensed in duplicates in a 96-well plate, and 80 μl of working reagent constituted with supplier provided assay buffer, lactate dehydrogenase, lactate and MTT reagent was added to each well. Samples were gently mixed and optical density at 565 nm was acquired immediately (0 min) and after 15 minutes, at room temperature using a microplate reader. A standard curve was utilized for calculating NADH/NAD^+ levels in each sample.
# [3] = tested on: db/db mice; assay: Echocardiography, body and heart weight in db/db mice; format: in vivo; conditions: 10 mg/kg/day i.p., four-weeks
# Procedure: Echocardiography. Serial […] echocardiography was conducted under 2-3% isoflurane/oxygen anesthesia using a Visualsonic Vevo 770 system equipped with 30 MHz linear signal transducer (Toronto, Ontario, Canada). The mice were depilated as required for imaging and before placing on a 37° C. heated platform. Echo measurements were taken from at least three different cardiac cycles for each mouse. M-mode imaging from short-axis of the left ventricle (LV), using the papillary muscles for reference, was used to obtain measurements. Fractional shortening (FS %) and ejection fraction (EF %) were calculated as previously described.
# [4] = tested on: db/db mice hearts; assay: Western blotting of db/db heart lysates; format: in vivo; conditions: vs vehicle
# Procedure: Western blotting. For studies aimed to assess the insulin stimulated AKT phosphorylation, following four-week P7C3 treatment, mice were injected with Novolin R human insulin (1 Unit/kg body weight, i.p.), and hearts were collected after 5 minutes for Western blot analysis. Protein lysates for Western blotting were prepared from mouse hearts as described previously. Equivalent amounts of protein were loaded and resolved using 12% precast polyacrylamide gels (BioRad, CA, USA). Successful transfer of proteins was detected using Ponceau S (Sigma-Aldrich, MO, USA), and blots were probed with mouse monoclonal primary antibody for phospho AKT^ser473 (p-AKT), total AKT (t-AKT), phospho eNOS^ser1177 (p-eNOS), total eNOS (t-eNOS), Beclin1, and GAPDH (Cell signaling, MA, USA). HRP conjugated Rabbit anti-mouse antibody (Millipore) was used as a secondary antibody. Target protein band densities were quantified using Image J software.
# [5] = tested on: db/db mice; assay: Grip strength and voluntary running wheel in db/db mice; format: in vivo; conditions: 4 weeks, vs db-Veh
# Procedure: Grip strength and voluntary running wheel. The fore-limb and hind-limb grip strengths were measured with the use of Chatillon force measurement DFE II grip strength meter (Ametek, Columbus Instruments, OH, USA). The average of five measurements per mice is represented as KGF/kg body weight for both the fore-limb and hind-limb grip strengths measured. The overnight voluntary running wheel experiments were carried out with the Columbus Instruments O297, the CI Multi-Device Interface (Columbus Instruments, OH, USA) per manufacturer's recommendations.
# [6] = tested on: C57Bl/6J wildtype mice; assay: In vivo myocardial infarction (permanent LAD ligation); conditions: single bolus 10 mg/kg i.p. 30 minutes prior to LAD occlusion; 24 hours; vs vehicle
# Procedure: […]. All surgical procedures were carried out in aseptic conditions. A left thoracotomy incision was performed at the fourth intercostal space to expose the heart and ligating the LAD coronary artery with an 8-0 polypropylene suture to induce MI as described previously. Myocardial ischemia was confirmed with both the development of pallor myocardium distal to the ligation in the left ventricle and with the ST-segment elevation on the ECG. The skin and muscle incisions were closed with a 6-0 polypropylene suture, and the mice was administered a single dose long-acting analgesic Buprenorphine SR s.c. at 0.5-1.5 mg/kg body weight. The mice were monitored for any signs of pain or discomfort and its feeding and drinking behavior. After 24 hours of occlusion of the LAD coronary artery, the mice were euthanized as per the approved IACUC protocol, and the heart was excised for further processing with 2,3,5-Triphenyltetrazolium chloride (TTC) (Sigma-Aldrich, MO, USA). The whole heart was cut into six parallel short-axis sections and stained with 1% TTC for 90 minutes and fixed overnight in 10% neutral-buffered formalin (Sigma-Aldrich, MO, USA). The TTC stained heart sections were then scanned to determine the total infarct size as the ratio of the infarcted area, i.e., not stained with TTC to the ventricular area of the 4 sections from the apex to the site of occlusion (n=3 mice/group).
structure (smiles),measurement,setting,value
"OC(CNc1ccccc1)Cn1c2ccc(Br)cc2c2cc(Br)ccc21 (stereo not drawn) [P7C3, 3,6-Dibromo-a-[(phenylamino)methyl]-9H-carbazole-9-ethanol]",cardiac effluent Troponin I levels,[1]; 30 and 120 minutes post-ischemia,significant decrease
same,infarct size,[1]; P7C3 3 μM prior to and following (2 hour reperfusion) ischemia,18%
same,increase in cardiac NAD+/NADH ratio,[2],2.5 fold
same,ejection fraction (EF %),[3],significantly increased
same,fractional shortening (FS %),[3],significantly increased
same,p-AKT signaling in cardiac tissue,[4]; 10 mg/kg/day i.p.,significantly increased
same,Beclin 1 protein expression,[4],significant increase
same,p-eNOS levels in cardiac tissue,[4],significantly increased
same,fore-limb grip strength,[5],significant increase
same,hind-limb grip strength,[5],significant increase
same,voluntary running wheel distance covered,[5],significant in-crease
same,total infarct size,[6],significant reduction
